Data published in ChEMBL document CHEMBL1138916, “Design and synthesis of the first generation of dithiolane thiazolidinedione- and phenylacetic acid-based PPARgamma agonists” (J Med Chem, 2006).
Converted amounts (≈) assume the structure as drawn. “And” between values parts separate entries of the source, which are not always exact repeats. Equal values may be shown once. The source made the active and inactive calls. No cut-off for these calls is given here.

How the values were obtained:
[1] = biological target: T1, Peroxisome proliferator-activated receptor gamma (Homo sapiens) (UniProt P37231); experiment: Transactivation of PPARgamma up to 30 uM in CV1 cells; assay type: functional, cell-based; conditions: CV-1
T1 sequence (whole entry): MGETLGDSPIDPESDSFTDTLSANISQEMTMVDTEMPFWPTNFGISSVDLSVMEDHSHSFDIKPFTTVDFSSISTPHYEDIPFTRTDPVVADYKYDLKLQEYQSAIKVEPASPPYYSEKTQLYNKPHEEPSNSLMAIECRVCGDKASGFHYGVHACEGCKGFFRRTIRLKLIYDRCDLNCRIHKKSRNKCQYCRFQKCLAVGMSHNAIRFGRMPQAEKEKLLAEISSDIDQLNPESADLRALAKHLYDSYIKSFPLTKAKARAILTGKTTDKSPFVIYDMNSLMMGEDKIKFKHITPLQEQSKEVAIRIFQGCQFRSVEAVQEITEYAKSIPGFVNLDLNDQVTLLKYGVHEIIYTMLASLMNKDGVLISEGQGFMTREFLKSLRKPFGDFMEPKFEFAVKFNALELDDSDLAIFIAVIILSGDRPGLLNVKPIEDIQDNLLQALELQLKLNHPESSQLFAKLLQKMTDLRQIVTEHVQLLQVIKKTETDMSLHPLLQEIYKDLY

MCF7 = experiment: Antiproliferative activity against human MCF7 cell line; assay type: functional, cell-based
HT-29 = experiment: Antiproliferative activity against human HT29 cell line; assay type: functional, cell-based
Keratinocyte = experiment: Antiproliferative activity against human keratinocytes; assay type: functional, cell-based
T-cell [2] = experiment: Inhibition of PHA/PMA-induced IL2 production in human T lymphocytes; assay type: functional
[3] = biological target: T2, Peroxisome proliferator-activated receptor gamma (Homo sapiens, UniProt P37231)
T2 sequence (P37231 whole entry): T1 sequence (whole entry)
Description: Transactivation of PPARgamma in CV1 cells

[4] = biological target: T1, Peroxisome proliferator-activated receptor gamma (Homo sapiens); experiment: Transactivation of PPARgamma at 10 uM in CV1 cells; assay type: functional, cell-based; conditions: CV-1
3T3-L1 = experiment: Induction of adipogenesis in mouse 3T3 L1 preadipocytes; assay type: functional, cell-based
T-cell [5] = experiment: Inhibition of PHA/PMA-induced IL2 production in human T lymphocytes at 10 uM; assay type: functional, cell-based
Rattus norvegicus [6] = experiment: Reduction in glucose level in Zucker fa/fa rat at 100 mg/kg relative to control; assay type: functional
[7] = Solubility in water; assay type: physicochemical
Rattus norvegicus [8] = experiment: Reduction in triglycerides level in Zucker fa/fa rat at 100 mg/kg relative to control; assay type: functional; set-up: scale not given: the % may be the effect or the level left

For COC(=O)Cc1ccc(OCCN(C)C(=O)CCCCC2CCSS2)c(Cl)c1 (stereo unspecified), which Activity [1] is on record?
The Activity was “inactive”.

What does the source list for CN(CCOc1ccc(CC2SC(=O)NC2=O)cc1)c1ccccn1 (stereo unspecified) [ROSIGLITAZONE]?
IC50 (MCF7): > 50 µM; IC50 (HT-29): 45 µM; IC50 (Keratinocyte): 8 µM; Inhibition (T-cell [2]): 75%

With CN(CCOc1ccc(CC(=O)O)cc1Cl)C(=O)CCCCC1CCSS1 (stereo unspecified) as the compound, how does the Activity [1] read?
Its Activity is “inactive”.

Which EC50 [3] does the source give for CC(=O)SC(CCCCC(=O)N(C)CCOc1ccc(CC2SC(=O)NC2=O)cc1)CCSC(=O)CCC(=O)O (stereo unspecified) here?
The EC50 was 0.15 µM.

What about the Activity [4] of the same compound?
The Activity was 168.

For CN(CCOc1ccc(CC2SC(=O)NC2=O)cc1)C(=O)CCCCC(CCSC(=O)CN)SC(=O)CN.Cl.Cl (stereo unspecified), which EC50 [3] is on record?
Its EC50 is 0.06 µM.

What about the Activity (3T3-L1) of the same compound?
Its Activity is “Active”.

What about the Activity (T-cell [5]) of the same compound?
The Activity was “Active”.

What about the IC50 (MCF7) of the same compound?
Its IC50 is 25 µM.

And the IC50 (HT-29)?
The IC50 was 8 µM.

And the IC50 (Keratinocyte)?
The IC50 was 1 µM.

And the Activity [4]?
Its Activity is 71.

What about the Inhibition (T-cell [2]) of the same compound?
The Inhibition was 92%.

Which EC50 [3] does the source give for CC(=O)SC(CCCCC(=O)N(C)CCOc1ccc(CC2SC(=O)NC2=O)cc1)CCSC(=O)CN (stereo unspecified) here?
The EC50 was 0.195 µM.

What about the Activity [4] of the same compound?
The Activity was 138.

With CC(=O)SCCC(CCCCC(=O)N(C)CCOc1ccc(CC2SC(=O)NC2=O)cc1)SC(C)=O (stereo unspecified) as the compound, how does the EC50 [3] read?
Its EC50 is 0.039 µM.

And the Activity [4]?
Its Activity is 150.

Which EC50 [3] does the source give for CN(CCOc1ccc(CC2SC(=O)NC2=O)cc1)C(=O)CCCCC(CCSC(=O)CCC(=O)O)SC(=O)CCC(=O)O (stereo unspecified) here?
The EC50 was 0.08 µM.

What about the Activity [4] of the same compound?
The Activity was 60.

For CN(CCCCC1CCSS1)CCOc1ccc(CC2SC(=O)NC2=O)cc1 (stereo unspecified) [listing 1 of 3 here], which EC50 [3] is on record?
The EC50 was 11.1 µM.

Which EC50 [3] does the source give for CN(CCCCC1CCSS1)CCOc1ccc(CC2SC(=O)NC2=O)cc1 (stereo unspecified) [listing 2 of 3 here] here?
The EC50 was 11.1 µM.

With CN(CCOc1ccc(CC2SC(=O)NC2=O)cc1)C(=O)CCCCC1CCSS1 (stereo unspecified) as the compound, how does the EC50 [3] read?
The EC50 was 0.015 µM.

What about the Activity (3T3-L1) of the same compound?
Its Activity is “Active”.

What about the Activity (T-cell [5]) of the same compound?
The Activity was “Active”.

What about the IC50 (MCF7) of the same compound?
Its IC50 is 15 µM.

And the Activity (Rattus norvegicus [6])?
The Activity was 180 mg/dL.

And the solubility [7]?
Its solubility is 39 µg/mL (≈ 83.2 µM).

What about the IC50 (HT-29) of the same compound?
Its IC50 is 10 µM.

And the Activity (Rattus norvegicus [8])?
Its Activity is 83% and 54 mg/dl.

And the IC50 (Keratinocyte)?
The IC50 was 0.6 µM.

And the Inhibition (T-cell [2])?
Its Inhibition is 92%.

With COC(=O)Cc1ccc(OCCCN(C)C(=O)CCCCC2CCSS2)c(Cl)c1 (stereo unspecified) as the compound, how does the EC50 [3] read?
The EC50 was 18.5 µM.

For O=C(CCCCC1CCSS1)NCCOc1ccc(CC2SC(=O)NC2=O)cc1 (stereo unspecified), which EC50 [3] is on record?
The EC50 was 10 µM.

What does the source list for CN(CCOc1ccc(CC2SC(=O)NC2=O)cc1)C(=O)CCCCC(S)CCSC(=O)CCC(=O)O (stereo unspecified)?
EC50 [3]: 0.02 µM; Activity [4]: 177

Which results are given for CN(CCOc1ccc(CC2SC(=O)NC2=O)cc1)C(=O)CCCCC(S)CCS (stereo unspecified)?
EC50 [3]: 0.075 µM; Activity (T-cell [5]): Active; Activity [4]: 129; Inhibition (T-cell [2]): 80%

With CN(CCCCC1CCSS1)CCOc1ccc(CC2SC(=O)NC2=O)cc1 (stereo unspecified) [listing 3 of 3 here] as the compound, how does the EC50 [3] read?
The EC50 was 28 µM.

With CN(CCCOc1ccc(CC(=O)O)cc1Cl)C(=O)CCCCC1CCSS1 (stereo unspecified) as the compound, how does the EC50 [3] read?
The EC50 was 12.3 µM.

Which Activity [1] does the source give for CN(CCOc1ccc(CC2SC(=O)NC2=O)cc1)C(=O)CCC1CCSS1 (stereo unspecified) here?
The Activity was “inactive”.

With CN(C(=O)CCCCC1CCSS1)c1ccc(CC2SC(=O)NC2=O)cc1 (stereo unspecified) as the compound, how does the Activity [1] read?
The Activity was “inactive”.
